The values below are quoted from earlier work in US7718389B2, “Stabilizing composition and stabilizing method of coelenterazine solution for high-throughput measurement of luciferase activity” (National Institute of Advanced Industrial Science and …, priority 2006, dated 2010).

For this series the following is noted: background statement.

On to `Oc1ccc(Cc2nc3c(Cc4ccccc4)nc(-c4ccc(O)cc4)cn3c2O)cc1` [coelenterazine], for which the “pKa value of proton of an imidazopyrazinone ring” value was “around 7.4”.
